Results reported in the supplement of paper PMC10627819.

Columns and labels:
S. pneumoniae D39V [1] = test: Bliss interaction score (quartile over a dose matrix) (fitness difference); higher = more antagonism (negative = synergy)
How it was run: (§1)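 The Bliss score subtracts expected fitness, the product of the single-drug fitness values, from observed fitness. Fitness is plate-normalised OD595 at entry into stationary phase, relative to the robust no-drug mean and capped at 1, with single-drug fitness inferred from combinations. Summaries are quartiles over technical, biological and donor/recipient replicates.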

S. aureus DSM 20231 [2] = test: as above
How it was run: as §1

B. subtilis 168 [3] = test: as above
How it was run: as §1

S. aureus Newman [4] = test: as above
How it was run: as §1

S. pneumoniae D39V [5] = test: fitness (endpoint OD595 vs no drug) (fraction); higher = more growth
How it was run: (§2)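 Fitness compares growth at the stationary-phase transition with the robust mean of no-drug control wells, as a ratio of optical densities. The ratio is capped at 1. Wells of 384-well plates held 30 µl, or 55 µl for S. pneumoniae, inoculated at OD595 0.01. Readings at OD595 every 30 min for 14 h at 37 °C were corrected against the first reading.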

S. aureus DSM 20231 [6] = test: as above
How it was run: as §2

B. subtilis 168 [7] = test: as above
How it was run: as §2

S. aureus Newman [8] = test: as above
How it was run: as §2

[9] = first compound 0.625 µg/mL, partner 0.0075 µg/mL
[10] = first compound 0.625 µg/mL, partner 0.015 µg/mL
[11] = first compound 1.25 µg/mL, partner 0.0075 µg/mL
[12] = first compound 1.25 µg/mL, partner 0.015 µg/mL
[13] = first compound 2.5 µg/mL, partner 0.0075 µg/mL
[14] = first compound 2.5 µg/mL, partner 0.015 µg/mL
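Throughout, for Bliss interaction score (quartile over a dose matrix): first quartile when negative (synergy) and third quartile when positive (antagonism).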

Question: For `Cc1ncc([N+](=O)[O-])n1CCO` [Metronidazole] + COc1c(N2C[C@@H]3CCCN[C@@H]3C2)c(F)cc2c(=O)c(C(=O)O)cn(C3CC3)c12 [Moxifloxacin], which Bliss interaction score (S. pneumoniae D39V [1]) is on record?
Answer: The Bliss interaction score was 0.0628.

Question: And the Bliss interaction score (S. aureus DSM 20231 [2])?
Answer: The Bliss interaction score was -0.063.

Question: And the Bliss interaction score (B. subtilis 168 [3])?
Answer: The Bliss interaction score was -0.015.

Question: And the Bliss interaction score (S. aureus Newman [4])?
Answer: Its Bliss interaction score is -0.0493.

Question: And the fitness (S. pneumoniae D39V [5]; first compound 1.073 µg/mL, partner 0.0037 µg/mL)?
Answer: The fitness was 0.834.

Question: What about the fitness (S. pneumoniae D39V [5]; first compound 1.073 µg/mL, partner 0.0075 µg/mL) of the same molecule?
Answer: The fitness was 0.85.

Question: And the fitness (S. pneumoniae D39V [5]; first compound 1.073 µg/mL, partner 0.015 µg/mL)?
Answer: The fitness was 0.879.

Question: And the fitness (S. pneumoniae D39V [5]; first compound 1.25 µg/mL, partner 0.005 µg/mL)?
Answer: Its fitness is 0.991.

Question: What about the fitness (S. pneumoniae D39V [5]; first compound 1.25 µg/mL, partner 0.01 µg/mL) of the same molecule?
Answer: Its fitness is ≥ 1.

Question: And the fitness (S. pneumoniae D39V [5]; first compound 1.25 µg/mL, partner 0.02 µg/mL)?
Answer: Its fitness is 0.975.

Question: And the fitness (S. pneumoniae D39V [5]; first compound 2.145 µg/mL, partner 0.0037 µg/mL)?
Answer: Its fitness is 0.689.

Question: What about the fitness (S. pneumoniae D39V [5]; first compound 2.145 µg/mL, partner 0.0075 µg/mL) of the same molecule?
Answer: The fitness was 0.707.

Question: What about the fitness (S. pneumoniae D39V [5]; first compound 2.145 µg/mL, partner 0.015 µg/mL) of the same molecule?
Answer: Its fitness is 0.808.

Question: What about the fitness (S. pneumoniae D39V [5]; first compound 2.5 µg/mL, partner 0.005 µg/mL) of the same molecule?
Answer: Its fitness is ≥ 1.

Question: What about the fitness (S. pneumoniae D39V [5]; first compound 2.5 µg/mL, partner 0.01 µg/mL) of the same molecule?
Answer: Its fitness is ≥ 1.

Question: And the fitness (S. pneumoniae D39V [5]; first compound 2.5 µg/mL, partner 0.02 µg/mL)?
Answer: Its fitness is ≥ 1.

Question: What about the fitness (S. pneumoniae D39V [5]; first compound 4.29 µg/mL, partner 0.0037 µg/mL) of the same molecule?
Answer: Its fitness is 0.742.

Question: And the fitness (S. pneumoniae D39V [5]; first compound 4.29 µg/mL, partner 0.0075 µg/mL)?
Answer: The fitness was 0.787.

Question: And the fitness (S. pneumoniae D39V [5]; first compound 4.29 µg/mL, partner 0.015 µg/mL)?
Answer: The fitness was 0.84.

Question: And the fitness (S. pneumoniae D39V [5]; first compound 5 µg/mL, partner 0.005 µg/mL)?
Answer: The fitness was ≥ 1.

Question: And the fitness (S. pneumoniae D39V [5]; first compound 5 µg/mL, partner 0.01 µg/mL)?
Answer: Its fitness is 0.999.

Question: What about the fitness (S. pneumoniae D39V [5]; first compound 5 µg/mL, partner 0.02 µg/mL) of the same molecule?
Answer: Its fitness is 0.983.

Question: And the fitness (S. aureus DSM 20231 [6]; [9])?
Answer: Its fitness is 0.835.

Question: What about the fitness (S. aureus DSM 20231 [6]; [10]) of the same molecule?
Answer: Its fitness is 0.779.

Question: What about the fitness (S. aureus DSM 20231 [6]; first compound 0.625 µg/mL, partner 0.03 µg/mL) of the same molecule?
Answer: The fitness was 0.635.

Question: What about the fitness (S. aureus DSM 20231 [6]; first compound 0.625 µg/mL, partner 0.06 µg/mL, one replicate) of the same molecule?
Answer: Its fitness is 0.703.

Question: And the fitness (S. aureus DSM 20231 [6]; first compound 0.625 µg/mL, partner 0.12 µg/mL, one replicate)?
Answer: The fitness was 0.498.

Question: And the fitness (S. aureus DSM 20231 [6]; [11])?
Answer: The fitness was 0.834.

Question: What about the fitness (S. aureus DSM 20231 [6]; [12]) of the same molecule?
Answer: Its fitness is 0.807.

Question: What about the fitness (S. aureus DSM 20231 [6]; first compound 1.25 µg/mL, partner 0.03 µg/mL) of the same molecule?
Answer: Its fitness is 0.633.

Question: And the fitness (S. aureus DSM 20231 [6]; first compound 1.25 µg/mL, partner 0.06 µg/mL, one replicate)?
Answer: Its fitness is 0.666.

Question: And the fitness (S. aureus DSM 20231 [6]; first compound 1.25 µg/mL, partner 0.12 µg/mL, one replicate)?
Answer: The fitness was 0.486.

Question: What about the fitness (S. aureus DSM 20231 [6]; [13]) of the same molecule?
Answer: Its fitness is 0.883.

Question: What about the fitness (S. aureus DSM 20231 [6]; [14]) of the same molecule?
Answer: The fitness was 0.828.

Question: And the fitness (S. aureus DSM 20231 [6]; first compound 2.5 µg/mL, partner 0.03 µg/mL)?
Answer: The fitness was 0.652.

Question: What about the fitness (S. aureus DSM 20231 [6]; first compound 2.5 µg/mL, partner 0.06 µg/mL, one replicate) of the same molecule?
Answer: The fitness was 0.703.

Question: What about the fitness (S. aureus DSM 20231 [6]; first compound 2.5 µg/mL, partner 0.12 µg/mL, one replicate) of the same molecule?
Answer: Its fitness is 0.541.

Question: What about the fitness (B. subtilis 168 [7]; first compound 0.625 µg/mL, partner 0.0312 µg/mL) of the same molecule?
Answer: Its fitness is 0.0445.

Question: And the fitness (B. subtilis 168 [7]; first compound 0.625 µg/mL, partner 0.0625 µg/mL)?
Answer: Its fitness is 0.0572.

Question: What about the fitness (B. subtilis 168 [7]; first compound 0.625 µg/mL, partner 0.125 µg/mL) of the same molecule?
Answer: The fitness was 0.045.

Question: What about the fitness (B. subtilis 168 [7]; first compound 0.625 µg/mL, partner 2 µg/mL) of the same molecule?
Answer: Its fitness is 0.0237.

Question: What about the fitness (B. subtilis 168 [7]; first compound 0.625 µg/mL, partner 4 µg/mL) of the same molecule?
Answer: The fitness was 0.0328.

Question: What about the fitness (B. subtilis 168 [7]; first compound 0.625 µg/mL, partner 8 µg/mL) of the same molecule?
Answer: The fitness was 0.0161.

Question: What about the fitness (B. subtilis 168 [7]; first compound 1.25 µg/mL, partner 0.0312 µg/mL) of the same molecule?
Answer: The fitness was 0.0649.

Question: And the fitness (B. subtilis 168 [7]; first compound 1.25 µg/mL, partner 0.0625 µg/mL)?
Answer: The fitness was 0.0674.

Question: And the fitness (B. subtilis 168 [7]; first compound 1.25 µg/mL, partner 0.125 µg/mL)?
Answer: Its fitness is 0.0461.

Question: What about the fitness (B. subtilis 168 [7]; first compound 1.25 µg/mL, partner 2 µg/mL) of the same molecule?
Answer: Its fitness is 0.0257.

Question: And the fitness (B. subtilis 168 [7]; first compound 1.25 µg/mL, partner 4 µg/mL)?
Answer: Its fitness is 0.0355.

Question: What about the fitness (B. subtilis 168 [7]; first compound 1.25 µg/mL, partner 8 µg/mL) of the same molecule?
Answer: The fitness was 0.022.

Question: What about the fitness (B. subtilis 168 [7]; first compound 2.5 µg/mL, partner 0.0312 µg/mL) of the same molecule?
Answer: Its fitness is 0.0682.

Question: And the fitness (B. subtilis 168 [7]; first compound 2.5 µg/mL, partner 0.0625 µg/mL)?
Answer: Its fitness is 0.0527.

Question: What about the fitness (B. subtilis 168 [7]; first compound 2.5 µg/mL, partner 0.125 µg/mL) of the same molecule?
Answer: The fitness was 0.0558.

Question: What about the fitness (B. subtilis 168 [7]; first compound 2.5 µg/mL, partner 2 µg/mL) of the same molecule?
Answer: Its fitness is 0.0301.

Question: And the fitness (B. subtilis 168 [7]; first compound 2.5 µg/mL, partner 4 µg/mL)?
Answer: Its fitness is 0.0306.

Question: And the fitness (B. subtilis 168 [7]; first compound 2.5 µg/mL, partner 8 µg/mL)?
Answer: Its fitness is 0.0188.

Question: And the fitness (S. aureus Newman [8]; [9])?
Answer: The fitness was 0.77.

Question: What about the fitness (S. aureus Newman [8]; [10]) of the same molecule?
Answer: Its fitness is 0.62.

Question: And the fitness (S. aureus Newman [8]; first compound 0.781 µg/mL, partner 0.0075 µg/mL)?
Answer: Its fitness is 0.691.

Question: What about the fitness (S. aureus Newman [8]; first compound 0.781 µg/mL, partner 0.015 µg/mL) of the same molecule?
Answer: Its fitness is 0.537.

Question: And the fitness (S. aureus Newman [8]; first compound 0.781 µg/mL, partner 0.03 µg/mL)?
Answer: Its fitness is 0.0945.

Question: What about the fitness (S. aureus Newman [8]; [11]) of the same molecule?
Answer: The fitness was 0.811.

Question: And the fitness (S. aureus Newman [8]; [12])?
Answer: The fitness was 0.598.

Question: What about the fitness (S. aureus Newman [8]; first compound 1.562 µg/mL, partner 0.0075 µg/mL) of the same molecule?
Answer: Its fitness is 0.689.

Question: And the fitness (S. aureus Newman [8]; first compound 1.562 µg/mL, partner 0.015 µg/mL)?
Answer: Its fitness is 0.531.

Question: What about the fitness (S. aureus Newman [8]; first compound 1.562 µg/mL, partner 0.03 µg/mL) of the same molecule?
Answer: Its fitness is 0.0833.

Question: What about the fitness (S. aureus Newman [8]; [13]) of the same molecule?
Answer: The fitness was 0.757.

Question: What about the fitness (S. aureus Newman [8]; [14]) of the same molecule?
Answer: The fitness was 0.596.

Question: And the fitness (S. aureus Newman [8]; first compound 3.124 µg/mL, partner 0.0075 µg/mL)?
Answer: The fitness was 0.725.

Question: And the fitness (S. aureus Newman [8]; first compound 3.124 µg/mL, partner 0.015 µg/mL)?
Answer: The fitness was 0.525.

Question: And the fitness (S. aureus Newman [8]; first compound 3.124 µg/mL, partner 0.03 µg/mL)?
Answer: The fitness was 0.0829.
